Assay results: US10913742B2, “Oxadiazolones as transient receptor potential channel inhibitors” (Genentech, Inc., priority 2017, dated 2021)
Where two headings read alike, the source gives them in different places. Blank lines part the entries; values can stand above or below the molecule they belong to.

Assays:
human TRPA1 = human TRPA1 (Homo sapiens (Human), UniProt O75762); assay: hTRPA1 CHO Ca2+ FLIPR assay (block of cinnamaldehyde induced calcium influx); assay type: cell-based
Method in brief: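 CHO cells expressing TRPA1 loaded with calcium dye (1 h at 37° C, then 15 min at room temperature) in HBSS/20 mM HEPES pH 7.4/0.02% BSA. Compounds preincubated 20 min at room temperature before cinnamaldehyde addition, with FLIPR Ca2+ readout. IC50 from Hill fit, n fixed at 1.5.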

[1] = Rat liver microsome clearance (RLM-CLhep); assay type: in vitro ADME; conditions: 0.5 mg/ml protein, 1 mM NADPH, 1 μM compound, 37° C.
Procedure: (§1) Certain pharmacokinetic attributes were evaluated for some compounds of the present disclosure. […] The compounds of the present disclosure were discovered to provide for an unexpected combination of high potency as measured by hTRPA1 IC50 and high stability as measured by RLM-CLhep, HLM-CLhep and Rat IV PK.
(§2) The reactions were incubated at 37° C. for 0, 20, 40 and 60 minutes and at each allotted time point an aliquot of the reaction mixture was added to ice-cold acetonitrile with internal standard. The samples were subsequently centrifuged at 3000×g for 10 minutes and supernatant was diluted in water before LC-MS/MS analysis.

[2] = Human liver microsome clearance (HLM-CLhep); assay type: in vitro ADME; conditions: 0.5 mg/ml protein, 1 mM NADPH, 1 μM compound, 37° C.
Procedure: as §1, §2

[3] = Rat IV PK (hepatic clearance); assay type: in vivo; conditions: rat IV dose of 1 mg/kg
Procedure: as §1

[4] = repeated from Table 1, read-out: hTRPA1 IC50
[5] = CHO cells expressing TRPA1, 75 uM cinnamaldehyde, Hill coefficient fixed to 1.5, read-out: hTRPA1 (hTRPA1 CHO Ca2+ MAX EVO (IC50))

Chain of human TRPA1 (O75762 whole entry): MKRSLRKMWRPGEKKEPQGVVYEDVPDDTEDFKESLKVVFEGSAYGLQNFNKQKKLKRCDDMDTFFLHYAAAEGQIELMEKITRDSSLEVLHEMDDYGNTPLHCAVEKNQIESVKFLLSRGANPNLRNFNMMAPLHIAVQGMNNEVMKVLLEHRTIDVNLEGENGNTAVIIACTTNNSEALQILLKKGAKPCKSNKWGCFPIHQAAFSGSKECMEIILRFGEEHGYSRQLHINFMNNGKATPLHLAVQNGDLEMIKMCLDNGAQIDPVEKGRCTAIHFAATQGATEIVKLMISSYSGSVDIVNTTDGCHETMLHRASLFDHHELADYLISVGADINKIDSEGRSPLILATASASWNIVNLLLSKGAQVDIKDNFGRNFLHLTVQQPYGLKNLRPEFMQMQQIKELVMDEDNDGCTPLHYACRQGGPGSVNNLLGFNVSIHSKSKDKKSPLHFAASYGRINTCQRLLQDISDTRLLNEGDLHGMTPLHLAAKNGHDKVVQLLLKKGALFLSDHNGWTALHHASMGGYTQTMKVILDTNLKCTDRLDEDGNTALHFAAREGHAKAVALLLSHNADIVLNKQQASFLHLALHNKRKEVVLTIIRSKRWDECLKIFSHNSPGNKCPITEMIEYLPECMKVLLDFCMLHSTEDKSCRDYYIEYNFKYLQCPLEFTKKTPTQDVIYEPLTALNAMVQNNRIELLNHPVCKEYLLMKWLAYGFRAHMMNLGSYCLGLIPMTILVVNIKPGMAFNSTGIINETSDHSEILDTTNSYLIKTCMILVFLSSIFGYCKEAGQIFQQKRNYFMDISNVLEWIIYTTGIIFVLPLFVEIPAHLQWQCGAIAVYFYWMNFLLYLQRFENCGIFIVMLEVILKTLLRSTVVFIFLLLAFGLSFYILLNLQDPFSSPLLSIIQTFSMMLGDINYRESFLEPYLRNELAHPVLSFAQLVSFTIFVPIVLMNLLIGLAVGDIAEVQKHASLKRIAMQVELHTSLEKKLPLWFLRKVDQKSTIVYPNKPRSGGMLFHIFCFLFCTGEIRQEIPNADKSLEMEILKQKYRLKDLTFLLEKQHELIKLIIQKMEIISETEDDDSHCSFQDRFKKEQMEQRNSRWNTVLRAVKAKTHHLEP

Compound: Cn1cnc2ncn(Cc3nn(CCc4ccc(Cl)cc4)c(=O)o3)c(=O)c21 [Example Compound 1, 3-[2-(4-chlorophenyl)ethyl]-5-[(7-methyl-6-oxo-purin-1-yl)methyl]-1,3,4-oxadiazol-2-one]
- IC50 (human TRPA1; [4]): 95 nM
- RLM-CLhep (rat liver microsome clearance) [1]: 34 mL/min/kg
- HLM-CLhep (human liver microsome clearance) [2]: 11 mL/min/kg
- Rat IV PK (hepatic clearance) [3]: 48 mL/min/kg

Compound: Cn1cnc2ncn(Cc3nn([C@H]4C[C@H](c5ccc(OC(F)F)cc5)C4)c(=O)o3)c(=O)c21 [compound 103, 3-[3-[(trans)-4-(difluoromethoxy)phenyl]cyclobutyl]-5-[(7-methyl-6-oxo-purin-1-yl)methyl]-1,3,4-oxadiazol-2-one]
- IC50 (human TRPA1; [5]): 26 nM

Compound: Cn1cnc2ncn(Cc3nn([C@H]4C[C@H](c5ccc(Cl)c(F)c5)C4)c(=O)o3)c(=O)c21 [compound 106, 3-[3-(4-chloro-3-fluoro-phenyl)cyclobutyl]-5-[(7-methyl-6-oxo-purin-1-yl)methyl]-1,3,4-oxadiazol-2-one]
- IC50 (human TRPA1; [5]): 29.9 nM

Compound: Cc1ccnc2ncn(Cc3nn([C@H]4C[C@H](c5ccc(Cl)cc5)C4)c(=O)o3)c(=O)c12 [compound 107, 3-[3-(4-chlorophenyl)cyclobutyl]-5-[(5-methyl-4-oxo-pyrido[2,3-d]pyrimidin-3-yl)methyl]-1,3,4-oxadiazol-2-one]
- IC50 (human TRPA1; [5]): 6.3 nM

Compound: Cn1cnc2ncn(Cc3nn([C@H]4C[C@H](c5ccc(F)cc5)C4)c(=O)o3)c(=O)c21 [compound 112, 3-[3-(4-fluorophenyl)cyclobutyl]-5-[(7-methyl-6-oxo-purin-1-yl)methyl]-1,3,4-oxadiazol-2-one]
- IC50 (human TRPA1; [5]): 64.8 nM

Further lines, results first:

- IC50 (human TRPA1; [4]): 34 nM
- RLM-CLhep (rat liver microsome clearance) [1]: 28 mL/min/kg
- HLM-CLhep (human liver microsome clearance) [2]: 6 mL/min/kg
- Rat IV PK (hepatic clearance) [3]: 17 mL/min/kg
Compound: Cn1cnc2ncn(Cc3nn(C[C@@H](F)c4ccc(Cl)cc4)c(=O)o3)c(=O)c21 [Example Compound 14, (S)-3-(2-(4-chlorophenyl)-2-fluoroethyl)-5-((7-methyl-6-oxo-6H-purin-1 (7H)-yl)methyl)-1,3,4-oxadiazol-2(3H)-one]

- RLM-CLhep (rat liver microsome clearance) [1]: 12 mL/min/kg
- HLM-CLhep (human liver microsome clearance) [2]: 5 mL/min/kg
- Rat IV PK (hepatic clearance) [3]: 10 mL/min/kg
Compound: Cn1cnc2ncn(Cc3nn([C@H]4C[C@H](c5ccc(Cl)cc5)C4)c(=O)o3)c(=O)c21 [Example Compound 50, 3-[3-(4-chlorophenyl)cyclobutyl]-5-[(7-methyl-6-oxo-purin-1-yl)methyl]-1,3,4-oxadiazol-2-one]

- IC50 (human TRPA1; [5]): 9.59 nM
Compound: Cn1cnc2ncn(Cc3nn([C@@H]4CC[C@@H](c5ccc(Cl)cc5)C4)c(=O)o3)c(=O)c21 [compound 100, 5-[(7-methyl-6-oxo-purin-1-yl)methyl]-3-[(1R,3R)-3-(4-chlorophenyl)cyclopentyl]-1,3,4-oxadiazol-2-one]

- IC50 (human TRPA1; [5]): 29.6 nM
Compound: Cc1ccnc2ncn(Cc3nn([C@H]4C[C@](F)(c5ccc(Cl)cc5)C4)c(=O)o3)c(=O)c12 [compound 104, 3-[3-(4-chlorophenyl)-3-fluoro-cyclobutyl]-5-[(5-methyl-4-oxo-pyrido[2,3-d]pyrimidin-3-yl)methyl]-1,3,4-oxadiazol-2-one]

- IC50 (human TRPA1; [5]): 64 nM
Compound: Cn1cnc2ncn(Cc3nn([C@H]4C[C@](F)(c5ccc(Cl)cc5)C4)c(=O)o3)c(=O)c21 [compound 105, trans-3-[3-(4-chlorophenyl)-3-fluoro-cyclobutyl]-5-[(7-methyl-6-oxo-purin-1-yl)methyl]-1,3,4-oxadiazol-2-one]

- IC50 (human TRPA1; [5]): 90 nM
Compound: Cn1cnc2ncn(Cc3nn([C@H]4C[C@H](c5ccc(C(F)(F)F)cc5)C4)c(=O)o3)c(=O)c21 [compound 111, 5-[(7-methyl-6-oxo-purin-1-yl)methyl]-3-[3-[4-(trifluoromethyl)phenyl]cyclobutyl]-1,3,4-oxadiazol-2-one]

- IC50 (human TRPA1; [5]): 17.8 nM
Compound: Cn1cnc2ncn(Cc3nn([C@H]4C[C@H](c5ccc6ccccc6c5)C4)c(=O)o3)c(=O)c21 [compound 113, 5-[(7-methyl-6-oxo-purin-1-yl)methyl]-3-[3-(2-naphthyl)cyclobutyl]-1,3,4-oxadiazol-2-one]
